Measurements: patent US9637491B2, “Pyrazolo[4,3-D]pyrimidines as kinase inhibitors” (Origenis GmbH, priority 2012, dated 2017)
pIC50: −log10 of the molar value.

Target: T1, SYK kinase (Homo sapiens, UniProt P43405)
T1 construct: purchased Invitrogen, Carlsbad
Assay: SYK assay (OMNIA Kinase Assay, Invitrogen)
Type: biochemical
Conditions: SYK Activities; 1 mM ATP, 10 μM Omnia Peptide Substrate Tyr 7, 30° C.
How it was run: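 Continuous-read fluorescence kinase assay: SOX-labelled Tyr 7 peptide (10 μM) with 1 mM ATP and 0.2 mM DTT, 30° C, reaction started by adding SYK. Fluorescence (ex 360/em 485 nm) read every 30 s for 30 min. IC50 from sigmoidal fit of reaction velocity versus inhibitor concentration.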

Row | pIC50 | SMILES
1 | 6.00 to 7.00 | Fc1cccc(F)c1-c1nc(Nc2cnn(C3CCOCC3)c2)c2[nH]ncc2n1 [Example 439, 5-(2,6-difluorophenyl)-N-(1-(tetrahydro-2H-pyran-4-yl)-1H-pyrazol-4-yl)-1H-pyrazolo[4,3-d]pyrimidin-7-amine]
2 | 6.00 to 7.00 | O=C(C1CC1)N1CCCc2ccc(Nc3nc(C4CC4)nc4cn[nH]c34)cc21 [Example 503, cyclopropyl(7-((5-cyclopropyl-1H-pyrazolo[4,3-d]pyrimidin-7-yl)amino)-3,4-dihydroquinolin-1(2H)-yl)methanone]
3 | 6.00 to 7.00 | CC(=O)N1CCC(n2cc(Nc3nc(-c4cocn4)nc4cn[nH]c34)cn2)CC1 [Example 130, 1-(4-(4-((5-(oxazol-4-yl)-1H-pyrazolo[4,3-d]pyrimidin-7-yl)amino)-1H-pyrazol-1-yl)piperidin-1-yl)ethan-1-one]
4 | 7.00 to 8.00 | N#Cc1cc(Nc2nc(-c3ccc4cn[nH]c4c3)nc3cn[nH]c23)ccc1N1CCOCC1 [Example 85, 5-((5-(1H-indazol-6-yl)-1H-pyrazolo[4,3-d]pyrimidin-7-yl)amino)-2-morpholinobenzonitrile]
5 | 7.00 to 8.00 | CN1CCN(C2CCN(c3ccc(Nc4nc(-c5ccccc5NS(C)(=O)=O)nc5cn[nH]c45)cc3)CC2)CC1 [Example 29, N-(2-(7-((4-(4-(4-methylpiperazin-1-yl)piperidin-1-yl)phenyl)amino)-1H-pyrazolo[4,3-d]pyrimidin-5-yl)phenyl)methanesulfonamide]
6 | 6.00 to 7.00 | COCCn1ncc(Nc2nc(-c3ccco3)nc3cn[nH]c23)c1N(C)C [Example 404, N4-(5-(furan-2-yl)-1H-pyrazolo[4,3-d]pyrimidin-7-yl)-1-(2-methoxyethyl)-N5,N5-dimethyl-1H-pyrazole-4,5-diamine]
7 | 7.00 to 8.00 | OCCn1cc(Nc2nc(-c3cocn3)nc3cn[nH]c23)cn1 [Example 247, 2-(4-((5-(oxazol-4-yl)-1H-pyrazolo[4,3-d]pyrimidin-7-yl)amino)-1H-pyrazol-1-yl)ethan-1-ol]
8 | 7.00 to 8.00 | Oc1c(Cl)cc(Nc2nc(-c3c(F)cccc3F)nc3cn[nH]c23)cc1Cl [Example 540, 2,6-dichloro-4-((5-(2,6-difluorophenyl)-1H-pyrazolo[4,3-d]pyrimidin-7-yl)amino)phenol]
9 | 7.00 to 8.00 | c1cncc(-c2cccc(-c3nc(Nc4cnn(C5CCNC5)c4)c4[nH]ncc4n3)c2)c1 (stereo not drawn) [Example 465, 5-(3-(pyridin-3-yl)phenyl)-N-(1-(pyrrolidin-3-yl)-1H-pyrazol-4-yl)-1H-pyrazolo[4,3-d]pyrimidin-7-amine]
10 | 7.00 to 8.00 | Fc1cc(Nc2nc(-c3ccc4cn[nH]c4c3)nc3cn[nH]c23)ccc1N1CCOCC1 [Example 46, N-(3-fluoro-4-morpholinophenyl)-5-(1H-indazol-6-yl)-1H-pyrazolo[4,3-d]pyrimidin-7-amine]
11 | 6.00 to 7.00 | CC(=O)N1CCN(c2ccc(Nc3nc(C(C)C)nc4cn[nH]c34)cc2)CC1 [Example 180, 1-(4-(4-((5-isopropyl-1H-pyrazolo[4,3-d]pyrimidin-7-yl)amino)phenyl)piperazin-1-yl)ethan-1-one]
12 | > 8.00 | O=C1CCc2ccc(Nc3nc(C4CC4)nc4cn[nH]c34)cc2N1 [Example 22, 7-((5-cyclopropyl-1H-pyrazolo[4,3-d]pyrimidin-7-yl)amino)-3,4-dihydroquinolin-2(1H)-one]
13 | 7.00 to 8.00 | O=C1CCCc2ccc(Nc3nc(-c4ccoc4)nc4cn[nH]c34)cc2N1 [Example 107, 8-((5-(furan-3-yl)-1H-pyrazolo[4,3-d]pyrimidin-7-yl)amino)-4,5-dihydro-1H-benzo[b]azepin-2(3H)-one]
14 | 6.00 to 7.00 | c1cc(N2CCNCC2)ccc1Nc1nc(C2CC2)nc2cn[nH]c12 [Example 55, 5-cyclopropyl-N-(4-(piperazin-1-yl)phenyl)-1H-pyrazolo[4,3-d]pyrimidin-7-amine]
15 | 7.00 to 8.00 | FCCn1cc(Nc2nc(-c3ccco3)nc3cn[nH]c23)cn1 [Example 367, N-(1-(2-fluoroethyl)-1H-pyrazol-4-yl)-5-(furan-2-yl)-1H-pyrazolo[4,3-d]pyrimidin-7-amine]
